Measured values published in patent publication US20090315454A1, “IRIDIUM COMPLEX COMPOUND, ORGANIC ELECTROLUMINESCENT DEVICE OBTAINED BY USING THE SAME, AND USES OF THE DEVICE” (Showa Denko K.K., priority 2006, published 2009).

Assay: Solubility test (visual, complete dissolution at prescribed concentration)
Assay type: physicochemical
Set-up: key: A: completely dissolved; B: partially undissolved
Settings: stirred at room temperature for one hour
Experimental: The facial and meridional iridium complex compounds (A) synthesized in Example 1 and the facial iridium complex compounds (B) to (D) synthesized in Examples 2 to 4 were tested for solubility. The test was carried out by mixing the iridium complex compound with chloroform or toluene so that a prescribed concentration was obtained, and visually determining if the iridium complex compound was completely dissolved or partially undissolved after the mixture had been stirred at room temperature for one hour.
Iridium complex compounds Ir(ppy)3 (the following Formula (Y)) and Ir(Fppy)3 (the following Formula (X)) were tested for solubility. The test was carried out by mixing the iridium complex compound with chloroform or toluene so that a prescribed concentration was obtained, and visually determining if the iridium complex compound was completely dissolved or partially undissolved after the mixture had been stirred at room temperature for one hour.

Solubility at concentration 0.1 wt % (chloroform)	Solubility at concentration 0.5 wt % (chloroform)	Solubility at concentration 1 wt % (chloroform)	Solubility at concentration 0.1 wt % (toluene)	Solubility at concentration 0.5 wt % (toluene)	Solubility at concentration 1 wt % (toluene)	Compound
A	A	A	A	B	B	CCCCCc1ccnc(-c2c(F)cc(F)c[c]2[Ir]([c]2cc(F)cc(F)c2-c2cc(CCCCC)ccn2)[c]2cc(F)cc(F)c2-c2cc(CCCCC)ccn2)c1 [Compound (B) facial complex]
A	A	A	A	A	B	CCCCC(CCCC)c1ccnc(-c2c(F)cc(F)c[c]2[Ir]([c]2cc(F)cc(F)c2-c2cc(C(CCCC)CCCC)ccn2)[c]2cc(F)cc(F)c2-c2cc(C(CCCC)CCCC)ccn2)c1 [Compound (C) facial complex]
A	A	A	A	A	A	CC(C)(C)c1ccnc(-c2[c-]cc(F)cc2F)c1.CC(C)(C)c1ccnc(-c2[c-]cc(F)cc2F)c1.CC(C)(C)c1ccnc(-c2[c-]cc(F)cc2F)c1.[Ir+3] [Compound (A) meridional complex]
A	A	A	A	A	A	CCCc1cc(-c2c(F)cc(F)c[c]2[Ir]([c]2cc(F)cc(F)c2-c2cc(CCC)c(CC)cn2)[c]2cc(F)cc(F)c2-c2cc(CCC)c(CC)cn2)ncc1CC [Compound (D) facial complex]
